Experimental data as given in ChEMBL document CHEMBL1629535, “Novel small molecule inhibitors of MDR Mycobacterium tuberculosis by NMR fragment screening of antigen 85C” (2010).
Values after ≈ are worked out from the molar mass of the structure shown. Active and inactive are the calls of the source. The rule behind the calls is not given here.

The compounds below were run against Diacylglycerol acyltransferase/mycolyltransferase Ag85C (Mycobacterium tuberculosis) (UniProt P9WQN9) (assay: Binding affinity to substrate binding site of multidrug resistance Mycobacterium tuberculosis antigen 85C by NMR assay).
Chain of Diacylglycerol acyltransferase/mycolyltransferase Ag85C (Mycobacterium tuberculosis) (P9WQN9 whole entry): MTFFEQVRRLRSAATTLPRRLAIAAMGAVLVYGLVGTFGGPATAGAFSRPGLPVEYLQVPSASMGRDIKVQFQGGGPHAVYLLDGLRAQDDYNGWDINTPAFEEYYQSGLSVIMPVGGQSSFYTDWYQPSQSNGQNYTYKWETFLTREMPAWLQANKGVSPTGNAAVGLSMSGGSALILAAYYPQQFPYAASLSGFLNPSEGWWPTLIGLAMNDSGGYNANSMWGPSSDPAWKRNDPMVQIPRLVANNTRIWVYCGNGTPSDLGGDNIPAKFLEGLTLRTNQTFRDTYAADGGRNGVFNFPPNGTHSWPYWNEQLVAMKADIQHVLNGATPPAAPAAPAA
For `CCC1CCc2c(sc(N)c2C#N)C1` (stereo not drawn), the Activity was “Active”. For `N#Cc1c(N)sc2c1C1CCN2CC1`, the Activity was “inactive”. For `CC(=O)Nc1sc2c(c1C#N)CCCC2`, the Activity was “inactive”. With `CC1(C)Cc2c(sc(N)c2C#N)CO1` the Activity was “inactive”. For `CC(=O)c1c(N)sc2c1CCCC2`, the Activity was “Active”. `COC(=O)c1c(N)sc2c1CCCC2` was tested, and the Activity was “Active”. In the case of `CCCC1CCc2c(sc(N)c2C#N)C1` (stereo not drawn), the Activity is reported as “Active”. In the case of `CC1CCc2c(sc(N)c2C(N)=O)C1` (stereo not drawn), the Activity is reported as “Active”. In the case of `CCCC1CCc2c(sc(N)c2C(N)=O)C1` (stereo not drawn), the Activity is reported as “Active”. For `CCC1(C)Cc2c(sc(N)c2C#N)CO1` (stereo not drawn), the Activity was “inactive”. In the case of `CCOC(=O)c1c(N)sc2c1C(C)CCC2` (stereo not drawn), the Activity is reported as “Active”. For `N#Cc1c(N)sc2c1CCCCC2`, the Activity was “Active”. `O=c1[nH]c(-c2ccncc2)nc2sc3c(c12)CCCC3` was tested, and the Activity was “inactive”. In the case of `N#Cc1c(N)sc2c1CCCC2`, the Activity is reported as “Active”. In the case of `CC1CCc2c(sc(N)c2C#N)C1` (stereo not drawn), the Activity is reported as “Active”. `CCN1CCc2c(sc(N)c2C#N)C1` was tested, and the Activity was “inactive”. With `Nc1sc2c(c1C(=O)NCc1ccccc1)CCCC2` the Activity was “inactive”. In the case of `CC(C)C(=O)Nc1sc2c(c1C#N)CCCC2`, the Activity is reported as “inactive”. For `CCC1CCc2c(sc(N)c2C(N)=O)C1` (stereo not drawn), the Activity was “Active”.

What follows are compounds tested on Mycobacterium tuberculosis (assay: Growth inhibition of multidrug resistance Mycobacterium tuberculosis 2745/09).
Assay type: functional
`CCC1CCc2c(sc(N)c2C#N)C1` (stereo not drawn) was tested, and the MIC was 50 µg/mL (≈ 242 µM). Work on `CCCOc1ccc2nc(N)sc2c1` yielded an MIC of 20 µg/mL (≈ 96 µM). Compound `CCCC1CCc2c(sc(N)c2C#N)C1` (stereo not drawn) has an MIC of 50 µg/mL (≈ 227 µM). `N#Cc1c(N)sc2c1CCCCC2` was tested, and the MIC was 500 µg/mL (≈ 2600 µM).
